Consider seven cell lines from the supplement of paper PMC10307832.

Holding throughout (experiment): relative viability (nuclei count vs DMSO), 5 days (fraction); higher = more cells survive
Compound in the assay “Zosuquidar + Lapatinib”: O[C@@H](COc1cccc2ncccc12)CN1CCN([C@@H]2c3ccccc3[C@@H]3[C@H](c4ccccc42)C3(F)F)CC1 [Zosuquidar] + CS(=O)(=O)CCNCc1ccc(-c2ccc3ncnc(Nc4ccc(OCc5cccc(F)c5)c(Cl)c4)c3c2)o1 [Lapatinib] (partner 2 µM)
The method in brief: (§1)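 Lung cancer cell lines were pin-tool dosed in 1536-well plates on the day after seeding, with either a lone drug or a fixed anchor-drug dose plus five library-drug doses (not always all listed) in √10 steps. Nuclei were counted on 4× images after 5 days. Relative viability is the ratio of treated-well to vehicle-well nuclei counts, with each value a median of duplicate plates.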

Compound in the assay “Zosuquidar + Palbociclib”: O[C@@H](COc1cccc2ncccc12)CN1CCN([C@@H]2c3ccccc3[C@@H]3[C@H](c4ccccc42)C3(F)F)CC1 [Zosuquidar] + CC(=O)c1c(C)c2cnc(Nc3ccc(N4CCNCC4)cn3)nc2n(C2CCCC2)c1=O [Palbociclib] (partner 0.5 µM)
In a few lines: as §1

Compound in assay [1]: COc1cc2nccc(Oc3ccc(NC(=O)C4(C(=O)Nc5ccc(F)cc5)CC4)cc3)c2cc1OC [Cabozantinib] + CC1(C)CCC(c2ccc(Cl)cc2)=C(CN2CCN(c3ccc(C(=O)NS(=O)(=O)c4ccc(N[C@H](CCN5CCOCC5)CSc5ccccc5)c(S(=O)(=O)C(F)(F)F)c4)cc3)CC2)C1 [Navitoclax] (partner 0.5 µM)
The method in brief: as §1

Compound in the assay “Zosuquidar + Luminespib”: O[C@@H](COc1cccc2ncccc12)CN1CCN([C@@H]2c3ccccc3[C@@H]3[C@H](c4ccccc42)C3(F)F)CC1 [Zosuquidar] + CCNC(=O)c1noc(-c2cc(C(C)C)c(O)cc2O)c1-c1ccc(CN2CCOCC2)cc1 [Luminespib] (partner 0.01 µM)
The method in brief:
as §1

On to NCI-H3122, for which the relative viability in the assay with Zosuquidar + Lapatinib (first compound 0.01 µM) was 0.997; with Zosuquidar + Lapatinib (first compound 0.03162 µM), 0.906; in the assay with Zosuquidar + Lapatinib (first compound 0.1 µM) it was 1; with Zosuquidar + Lapatinib (first compound 0.3162 µM), 1.01; in the assay with Zosuquidar + Lapatinib (first compound 1 µM) it was 1.01; in the assay with Zosuquidar + Palbociclib (first compound 0.01 µM), 0.177. In addition, the relative viability with Zosuquidar + Palbociclib (first compound 0.03162 µM) was 0.195; in the assay with Zosuquidar + Palbociclib (first compound 0.1 µM), 0.18; with Zosuquidar + Palbociclib (first compound 0.3162 µM), 0.213; with Zosuquidar + Palbociclib (first compound 1 µM), 0.197; in assay [1] (first compound 0.02 µM), 0.988; in assay [1] (first compound 0.06325 µM) it was 1.03. The relative viability in assay [1] (first compound 0.2 µM) worked out at 0.987; in assay [1] (first compound 0.6325 µM), 1.03; in assay [1] (first compound 2 µM), 1.02; with Zosuquidar + Luminespib (first compound 0.01 µM), 0.095; with Zosuquidar + Luminespib (first compound 0.03162 µM), 0.0891; with Zosuquidar + Luminespib (first compound 0.1 µM), 0.0947. Further, the relative viability with Zosuquidar + Luminespib (first compound 0.3162 µM) is 0.0965; in the assay with Zosuquidar + Luminespib (first compound 1 µM), 0.0865.
Take PC-3 [JPC-3]: the relative viability turned out to be 0.449 with Zosuquidar + Lapatinib (first compound 0.01 µM); 0.429 in the assay with Zosuquidar + Lapatinib (first compound 0.03162 µM); 0.401 in the assay with Zosuquidar + Lapatinib (first compound 0.1 µM); 0.433 in the assay with Zosuquidar + Lapatinib (first compound 0.3162 µM); 0.447 with Zosuquidar + Lapatinib (first compound 1 µM); 0.554 in the assay with Zosuquidar + Palbociclib (first compound 0.01 µM). The relative viability in the assay with Zosuquidar + Palbociclib (first compound 0.03162 µM) is 0.52; with Zosuquidar + Palbociclib (first compound 0.1 µM), 0.542; with Zosuquidar + Palbociclib (first compound 0.3162 µM), 0.507; in the assay with Zosuquidar + Palbociclib (first compound 1 µM), 0.473; in assay [1] (first compound 0.02 µM), 0.829; in assay [1] (first compound 0.06325 µM) it was 0.929. In addition, the relative viability in assay [1] (first compound 0.6325 µM) was 0.784; in assay [1] (first compound 2 µM), 0.868; in the assay with Zosuquidar + Luminespib (first compound 0.01 µM) it was 0.697; with Zosuquidar + Luminespib (first compound 0.03162 µM), 0.647; with Zosuquidar + Luminespib (first compound 0.1 µM), 0.647; with Zosuquidar + Luminespib (first compound 0.3162 µM), 0.658. In addition, the relative viability with Zosuquidar + Luminespib (first compound 1 µM) came to 0.75.
For PC-14, the relative viability in the assay with Zosuquidar + Lapatinib (first compound 0.01 µM) was found to be 0.316; in the assay with Zosuquidar + Lapatinib (first compound 0.03162 µM) it was 0.284; in the assay with Zosuquidar + Lapatinib (first compound 0.1 µM), 0.259; with Zosuquidar + Lapatinib (first compound 0.3162 µM) it was 0.416; with Zosuquidar + Lapatinib (first compound 1 µM) it was 0.288; with Zosuquidar + Palbociclib (first compound 0.01 µM), 0.506. For the same cell line, the relative viability amounted to 0.475 with Zosuquidar + Palbociclib (first compound 0.03162 µM); 0.635 with Zosuquidar + Palbociclib (first compound 0.1 µM); 0.509 in the assay with Zosuquidar + Palbociclib (first compound 0.3162 µM); 0.52 with Zosuquidar + Palbociclib (first compound 1 µM); 1.06 in assay [1] (first compound 0.02 µM); 1.09 in assay [1] (first compound 0.06325 µM). The relative viability in assay [1] (first compound 0.6325 µM) amounted to 0.931; in assay [1] (first compound 2 µM), 0.997; with Zosuquidar + Luminespib (first compound 0.01 µM) it was 0.129; in the assay with Zosuquidar + Luminespib (first compound 0.1 µM) it was 0.135; with Zosuquidar + Luminespib (first compound 0.3162 µM), 0.135; with Zosuquidar + Luminespib (first compound 1 µM) it was 0.124.
Take RERF-LC-KJ: the relative viability in the assay with Zosuquidar + Lapatinib (first compound 0.01 µM) came to 0.786; in the assay with Zosuquidar + Lapatinib (first compound 0.03162 µM), 0.902; in the assay with Zosuquidar + Lapatinib (first compound 0.1 µM), 0.841; with Zosuquidar + Lapatinib (first compound 0.3162 µM), 0.943; with Zosuquidar + Lapatinib (first compound 1 µM) it was 0.811; with Zosuquidar + Palbociclib (first compound 0.01 µM) it was 1.1. Besides, the relative viability came out at 1.07 with Zosuquidar + Palbociclib (first compound 0.03162 µM); 1.06 with Zosuquidar + Palbociclib (first compound 0.1 µM); 1.1 in the assay with Zosuquidar + Palbociclib (first compound 0.3162 µM); 1.14 with Zosuquidar + Palbociclib (first compound 1 µM); 1.06 in assay [1] (first compound 0.02 µM); 1.08 in assay [1] (first compound 0.06325 µM). In addition, the relative viability in assay [1] (first compound 0.2 µM) worked out at 0.948; in assay [1] (first compound 0.6325 µM), 0.866; in assay [1] (first compound 2 µM), 0.921; in the assay with Zosuquidar + Luminespib (first compound 0.01 µM), 1.28; with Zosuquidar + Luminespib (first compound 0.03162 µM), 1.11; with Zosuquidar + Luminespib (first compound 0.1 µM), 1.29. Further, the relative viability with Zosuquidar + Luminespib (first compound 0.3162 µM) is 1.34; with Zosuquidar + Luminespib (first compound 1 µM) it was 1.19.
Regarding SK-LU-1, the relative viability was found to be 0.905 with Zosuquidar + Lapatinib (first compound 0.01 µM); 0.918 with Zosuquidar + Lapatinib (first compound 0.03162 µM); 1.02 with Zosuquidar + Lapatinib (first compound 0.1 µM); 0.79 in the assay with Zosuquidar + Lapatinib (first compound 0.3162 µM); 1.01 with Zosuquidar + Lapatinib (first compound 1 µM); 0.396 with Zosuquidar + Palbociclib (first compound 0.01 µM). Moreover, the relative viability was determined as 0.381 with Zosuquidar + Palbociclib (first compound 0.03162 µM); 0.408 with Zosuquidar + Palbociclib (first compound 0.1 µM); 0.432 in the assay with Zosuquidar + Palbociclib (first compound 0.3162 µM); 0.396 in the assay with Zosuquidar + Palbociclib (first compound 1 µM); 1.09 in assay [1] (first compound 0.06325 µM); 0.967 in assay [1] (first compound 0.2 µM). The relative viability in assay [1] (first compound 0.6325 µM) came to 0.852; in assay [1] (first compound 2 µM) it was 0.988; in the assay with Zosuquidar + Luminespib (first compound 0.01 µM) it was 0.228; in the assay with Zosuquidar + Luminespib (first compound 0.03162 µM), 0.201; with Zosuquidar + Luminespib (first compound 0.1 µM), 0.177; with Zosuquidar + Luminespib (first compound 0.3162 µM), 0.204. Moreover, in the assay with Zosuquidar + Luminespib (first compound 1 µM), the relative viability came out at 0.219.
Turning to SK-MES-1, the relative viability came to 0.448 with Zosuquidar + Lapatinib (first compound 0.01 µM); 0.401 with Zosuquidar + Lapatinib (first compound 0.03162 µM); 0.445 with Zosuquidar + Lapatinib (first compound 0.1 µM); 0.495 with Zosuquidar + Lapatinib (first compound 0.3162 µM); 0.517 in the assay with Zosuquidar + Lapatinib (first compound 1 µM); 0.332 in the assay with Zosuquidar + Palbociclib (first compound 0.01 µM). Also, the relative viability in the assay with Zosuquidar + Palbociclib (first compound 0.03162 µM) stood at 0.347; in the assay with Zosuquidar + Palbociclib (first compound 0.1 µM) it was 0.374; in the assay with Zosuquidar + Palbociclib (first compound 0.3162 µM), 0.329; with Zosuquidar + Palbociclib (first compound 1 µM) it was 0.319; in assay [1] (first compound 0.02 µM), 1.28; in assay [1] (first compound 0.06325 µM) it was 1.24. Also, the relative viability in assay [1] (first compound 0.2 µM) was determined as 1.22; in assay [1] (first compound 0.6325 µM) it was 1.23; in assay [1] (first compound 2 µM), 1.19; with Zosuquidar + Luminespib (first compound 0.01 µM), 0.72; in the assay with Zosuquidar + Luminespib (first compound 0.03162 µM), 0.732; with Zosuquidar + Luminespib (first compound 0.1 µM) it was 0.732. The relative viability is 0.881 with Zosuquidar + Luminespib (first compound 0.3162 µM) and 0.938 in the assay with Zosuquidar + Luminespib (first compound 1 µM).
Consider SW 1573, for which the relative viability in the assay with Zosuquidar + Lapatinib (first compound 0.01 µM) amounted to 1.09; with Zosuquidar + Lapatinib (first compound 0.03162 µM) it was 0.985; with Zosuquidar + Lapatinib (first compound 0.1 µM) it was 1.08; with Zosuquidar + Lapatinib (first compound 0.3162 µM) it was 1.4; with Zosuquidar + Lapatinib (first compound 1 µM) it was 1.01; in the assay with Zosuquidar + Palbociclib (first compound 0.01 µM), 0.44. The relative viability turned out to be 0.4 with Zosuquidar + Palbociclib (first compound 0.03162 µM); 0.541 with Zosuquidar + Palbociclib (first compound 0.1 µM); 0.405 with Zosuquidar + Palbociclib (first compound 0.3162 µM); 0.372 in the assay with Zosuquidar + Palbociclib (first compound 1 µM); 1.04 in assay [1] (first compound 0.02 µM); 1.17 in assay [1] (first compound 0.06325 µM). Further, the relative viability in assay [1] (first compound 0.2 µM) was determined as 0.887; in assay [1] (first compound 0.6325 µM), 1; in assay [1] (first compound 2 µM) it was 0.81; with Zosuquidar + Luminespib (first compound 0.01 µM), 0.281; in the assay with Zosuquidar + Luminespib (first compound 0.03162 µM) it was 0.287; with Zosuquidar + Luminespib (first compound 0.1 µM), 0.287. The figures for the relative viability with Zosuquidar + Luminespib (first compound 0.3162 µM) and with Zosuquidar + Luminespib (first compound 1 µM) were 0.275 and 0.355, respectively.
